Holding throughout (assay type): in vivo
The subject of data set [1] is termites (Reticulitermes flavipes (Kollar)). The data set is described as follows: First experiment: test arena with three monitors, treated non-edible foraging matrix disc in one monitor. The text has this:
(§1) Data from two sets of experiments are included. In the first set of experiments, a total of 3,000 termites were used (2,970 workers and 30 soldiers) in all three replicates. In the second set of experiments, 3,000 termites were used in 4 replicates and 1,400 termites (1,386 workers and 14 soldiers) were used in two replicates for a total of six replicates. Fewer termites from 2 colonies were used because we could not collect enough to complete the replicates if a total of 3000 termites were used. The termites (Reticulitermes flavipes (Kollar)) were field collected from field colonies, separated from debris, and held in the laboratory at the USDA (United States Department of Agriculture) for no more than 14 days before introduction into a test arena for each experimental block. Termites from a different colony were used for each replicate.
(§2) The test arena consisted of Plexiglas sides (45 cm long, by 30 cm wide by 5.5 cm high) taped to a glass bottom (45 cm long, by 30 cm wide, by 0.6 cm high) with clear packing tape, manufactured by Crystal Clear, Manco Inc., Avon, Ohio. The Plexiglas sides were assembled by joining pieces with methylene chloride. Before the Plexiglas sides were taped to the glass bottom, the sides were baked in an oven at 40+/−2° C. for 24 hours to ensure that any volatiles caused by the methylene chloride were removed.
(§3) Builders sand from Unified Classification SP, O'Steen Bros., Inc., of Gainesville, Fla., was oven dried at 60+/−2° C. for at least 24 hours in metal pans. The sand was cooled and sieved using a sieve manufactured from Fisher Scientific Co., USA sieve no. 25, having openings of approximately 0.0278 inches each. The sieve was used to remove large pieces of debris. Two thousand five hundred grams (+/−1 g) of sand were poured into the arena and mixed thoroughly with 250 ml of double filtered, de-ionized water, which brought the moisture content of the sand to 10%. The sand was tamped and leveled.
(§4) Three monitoring stations were placed on top of the moistened builder's sand. The monitors were made of one roll of corrugated cardboard (100 cm by 6.5 cm) that was moistened and stacked into a white PVC coupler having an inner diameter of approximately 7 cm and being approximately 7.3 cm high, manufactured from Lasco of Brownsville, Tenn.
(§5) The non-edible foraging matrix treated with toxicant and used for the testing was a loamy, siliceous, thermic, arenic paleudults soil, which was a common sandy loam native soil from Central Florida. This native soil was initially oven dried at 150+/−2° C. for at least 24 hours, then cooled, then sifted to remove large pieces of organic debris. After treatment with a toxicant, the treated non-edible foraging matrix was formed into a disc for insertion into the monitors after termite activity occurred. The color contrast between the builder's sand, which was light honey color, and the native non-edible foraging matrix, which was a dark brown, was enough to see termites move portions of the treated soil particles from the discs into the tunnels.
In both sets of experiments, three different non-edible foraging matrix treatment applications were prepared using novel selected amounts of termite treatment chemicals. The difference between the first experiment and the second experiment was the rates used. […] The second application had the non-edible foraging matrix sample treated with 250 ppm of chlorfenapyr, a version entitled Phantom from American Cyanamid of Princeton, N.J. A third application had the non-edible foraging matrix treated with 125 ppm of fipronil, a version entitled Termidor, from Rhone-Poulenc of Research Triangle, N.C.
In both experimental set ups, controls were treated with filtered and de-ionized water. The treated non-edible foraging matrix was air dried for 7 days and stored in sealed plastic bags until ready for use. […]

Data set [2] shares this test system. The data set is described as follows: Second experiment: test arena with treated foraging matrix disc at lower rates, termite survival in arenas. As to conditions: for Time for cessation of termite activity: second experiment, activity in the monitors not detected.
Source text: as §1, §2, §3, §4, §5
The second application had the non-edible foraging matrix sample treated with 2.5 and 25.0 ppm of chlofenapyr, a version entitled Phantom from American Cyanamid of Princeton, N.J. A third application had the non-edible foraging matrix treated with 1.25 and 12.5 ppm of fipronil, a version entitled Termidor, from Rhone-Poulenc of Research Triangle, N.C. It is important to note that the rates used were approximately 10 and 100 times less than the rates use in the first experiment and are also 10 to 100 times less than the rates listed or proposed on the pesticide labels. Thus, the rates used in this experiment was not used for the intended purpose of the chemicals, which was to immediately kill the termites by creating a chemical barrier completely around the structure.
In both experimental set ups, controls were treated with filtered and de-ionized water. […]

The subject of data set [3] is subterranean termites. As to conditions: embodiment 2. On the procedure: In the first experiment for embodiment two, oven dried Alachua fine soil was treated with approximately 125.0 ppm chlorfenapyr as the non-edible foraging matrix 550. The mixture 550 was poured into the opening 542 and wet to a moisture level of 10%. The amount of mixture 550 added to opening 542 was recorded for each replicate. Circular plastic containers having a diameter of approximately 11.5 cm by approximately 10 cm thick were filled with approximately 514 g of builder's sand and wet to a moisture level of approximately 10%. Embodiment 2 was inserted into the builder's sand in the plastic cup, 500 subterranean termites were added and the termites were allowed to tunnel for 3 weeks. After 3 weeks, the plastic container setup was disassembled. The number of live termites in the experimental unit was recorded. The amount of mixture 550 displaced from embodiment 2 was measured and recorded. Data were analyzed with a comparison test, between an untreated control sample and four replications(experimental units) of chlorfenatyr(slow acting toxicant).
Alive refers to number of termites alive after three(3) weeks exposure. %Mortality refers to percentage of termites that died after three(3) weeks exposure. Soil Moved(g) refers to total amount soil removed by the termites per each replication(per experimental unit). […] An average of 99.95% of the termites in treated units died, compared with 8.8% mortality in the control unit. […] Total untreated mixture 550 moved from embodiment 2 to the surrounding area was approximately 3.93 g, compared with an average of approximately 1.49 g of mixture 550 treated with approximately 125.0 ppm chlorfenapyr.
(§6) In the second experiment, mixture 550 was tested at a concentration of approximately 12.5 ppm chlorfenapyr. Experimental procedure was identical to what is listed above.

Data set [4] has as its system subterranean termites. As to conditions: embodiment 3. On the procedure: In the first experiment for embodiment 3, oven dried Alachua fine soil was treated with approximately 125.0 ppm chlorfenapyr as the non-edible foraging matrix 550. The mixture 550 was poured into the opening 542 and wet to a moisture level of 10%. The amount of mixture 550 added to opening 542 was recorded for each replicate. Plastic containers (approximately 11.5 cm diameter, approximately 10 cm high) were filled with approximately 514 g of builder's sand and wet to a moisture level of approximately 10%. Embodiment 3 was assembled and inserted into the builder's sand in the plastic cup, 500 subterranean termites were added and the termites were allowed to tunnel for 3 weeks. After 3 weeks, the plastic container setup was disassembled. The number of live termites in the experimental unit was recorded. The amount of mixture 550 displaced from embodiment 2 was measured and recorded.
Alive refers to number of termites alive after three(3) weeks exposure. %Mortality refers to percentage of termites that died after three(3) weeks exposure. Soil Moved(g) refers to total amount soil removed by the termites per each replication(per experimental unit).
as §6

Where [5] appears, read: approximately 12.5 ppm chlorfenapyr.
Where [6] appears, read: approximately 125.0 ppm chlorfenapyr.

“And” between values parts separate entries of the source, which are not always exact repeats. Equal entries are not always repeated. Where two headings read alike, the source gives them in different places.

Consider `CCOCn1c(-c2ccc(Cl)cc2)c(C#N)c(Br)c1C(F)(F)F` [Chlorfenapyr, chlorfenapyr], for which the “Mean ± SE number of termites in monitors” value in data set [1] (foraging matrix 250 ppm chlorfenapyr, week 1) is listed as 100 ± 11.9; in data set [1] (foraging matrix 250 ppm chlorfenapyr, week 2) it was 60.7 ± 12.9; in data set [1] (foraging matrix 250 ppm chlorfenapyr, week 3), 21.3 ± 12.2; in data set [1] (foraging matrix 250 ppm chlorfenapyr, week 4) it was 10.9 ± 7.6; in data set [1] (foraging matrix 250 ppm chlorfenapyr, week 5), 3.5 ± 3.3; in data set [1] (foraging matrix 250 ppm chlorfenapyr, week 6), 0.8 ± 0.8. Also, the “Mean ± SE number of termites in monitors” value is given as 0 ± 0 in data set [1] (foraging matrix 250 ppm chlorfenapyr, week 7) and 0 ± 0 in data set [1] (foraging matrix 250 ppm chlorfenapyr, week 8). The “Mean ± SE percent survival of termites” value is 9.33 ± 5.05a^1% in data set [2] (chlorfenapyr 2.5 ppm foraging matrix, after 8 weeks); 9.33% in data set [2] (chlorfenapyr 2.5 ppm foraging matrix, after 8 weeks, listed as chlorfenapyr); 0.16 ± 0.16b % in data set [2] (chlorfenapyr 25.0 ppm foraging matrix, after 8 weeks); 0.16% in data set [2] (chlorfenapyr 25.0 ppm foraging matrix, after 8 weeks, listed as chlorfenapyr). In addition, the “Termite kill (in words)” value in data set [2] (chlorfenapyr at 25 ppm) is on record as “killed virtually all the termites”. The “Time for cessation of termite activity” value in data set [2] is reported as 8 weeks. The “Amount of mixture 550 moved, treated compared with untreated” value is “no significant difference” with subterranean termites [3] (setting [5]), “significantly more of the untreated mixture 550 was moved” in the data set on subterranean termites [3] (setting [6]), “significantly less treated mixture 550 moved” in the data set on subterranean termites [4] (setting [5]) and “significantly more of the untreated mixture 550 was moved” with subterranean termites [4] (setting [6]). The “Mortality compared with untreated replications” value in the data set with subterranean termites [3] (setting [5]) and in the data set with subterranean termites [3] (setting [6]) was “significantly higher” in each case. For the same molecule, the “Average percentage of termites in treated units that died” value in the data set with subterranean termites [3] (approximately 12.5 ppm chlorfenapyr, approximately 13.2% in untreated control units) was “approximately 85.3%”; with subterranean termites [3] (approximately 125.0 ppm chlorfenapyr, 3 weeks, 8.8% in control unit), 99.95%; in the data set with subterranean termites [4] (approximately 12.5 ppm chlorfenapyr, approximately 18.5% in untreated control units) it was “approximately 37.7%”; in the data set on subterranean termites [4] (approximately 125.0 ppm chlorfenapyr, approximately 9.6% in control unit), 100.0%. For the same molecule, the “% Mortality” value in the data set with subterranean termites [3] (approximately 125.0 ppm chlorfenapyr, after 3 weeks exposure, per replication) was 100.0% and 99.8%; in the data set on subterranean termites [4] (125.0 ppm chlorfenapyr, after 3 weeks exposure, per replication), 100.0%; in the data set on subterranean termites [4] (approximately 12.5 ppm chlorfenapyr, after 3 weeks exposure, per replication), 100%. The “Amount of mixture 550 moved, 12.5 ppm compared with 125.0 ppm” value with subterranean termites [3] (chlorfenapyr 12.5 ppm vs 125.0 ppm) was “significantly more mixture 550 treated at 12.5 ppm was moved”. The “Mortality, approximately 125 ppm compared with approximately 12.5 ppm” value in the data set with subterranean termites [3] (chlorfenapyr 125 ppm vs 12.5 ppm) is recorded as “no significant differences”. For the same molecule, the “Alive (number of termites alive)” value in the data set on subterranean termites [4] (125.0 ppm chlorfenapyr, 500 termites, after 3 weeks exposure, per replication) is listed as 0. Further, in the data set with subterranean termites [4] (setting [5]), the “Mortality compared with untreated controls” value is listed as “no significant difference”.
For `N#Cc1nn(-c2c(Cl)cc(C(F)(F)F)cc2Cl)c(N)c1[S+]([O-])C(F)(F)F` (stereo not drawn) [Fipronil, fipronil], the “Mean ± SE number of termites in monitors” value in data set [1] (foraging matrix 125 ppm fipronil, week 1) is listed as 73.8 ± 11.1; in data set [1] (foraging matrix 125 ppm fipronil, week 2), 44.3 ± 18.8; in data set [1] (foraging matrix 125 ppm fipronil, week 3), 14.6 ± 8.0; in data set [1] (foraging matrix 125 ppm fipronil, week 4) it was 6.4 ± 3.4; in data set [1] (foraging matrix 125 ppm fipronil, week 5) it was 2.6 ± 1.6; in data set [1] (foraging matrix 125 ppm fipronil, week 6) it was 0.3 ± 0.3. For the same molecule, the “Mean ± SE number of termites in monitors” value worked out at 0 ± 0 in data set [1] (foraging matrix 125 ppm fipronil, week 7) and 0 ± 0 in data set [1] (foraging matrix 125 ppm fipronil, week 8). Also, the “Mean ± SE percent survival of termites” value is 0.51 ± 0.30b % in data set [2] (fipronil 1.25 ppm foraging matrix, after 5 weeks) and 0.30 ± 0.29b % in data set [2] (fipronil 12.5 ppm foraging matrix, after 5 weeks). Also, the percent survival in data set [2] (fipronil 12.5 and 1.25 ppm foraging matrix, 39% in untreated arenas) is given as 0.3-0.5%. In addition, in data set [2] (fipronil at 1.25 and 12.5 ppm), the “Termite kill (in words)” value is “killed virtually all the termites”. Besides, the “Time for cessation of termite activity” value in data set [2] turned out to be 5 weeks.
As to `O=[N+]([O-])NC1=NCCN1Cc1ccc(Cl)nc1` [Imidacloprid, imidacloprid], the “Termites in the monitors” value in data set [1] (50 ppm imidacloprid, first experiment, summary of Table 1) is on record as 54 termites. Besides, the “Mean ± SE number of termites in monitors” value is reported as 82.0 ± 2.7 in data set [1] (foraging matrix 50 ppm imidacloprid, week 1); 67.5 ± 0.1 in data set [1] (foraging matrix 50 ppm imidacloprid, week 2); 45.7 ± 14.9 in data set [1] (foraging matrix 50 ppm imidacloprid, week 3); 13.7 ± 2.9 in data set [1] (foraging matrix 50 ppm imidacloprid, week 4); 8.0 ± 3.7 in data set [1] (foraging matrix 50 ppm imidacloprid, week 5); 3.2 ± 3.0 in data set [1] (foraging matrix 50 ppm imidacloprid, week 6). The “Mean ± SE number of termites in monitors” value worked out at 1.4 ± 1.4 in data set [1] (foraging matrix 50 ppm imidacloprid, week 7) and 1.8 ± 0.9 in data set [1] (foraging matrix 50 ppm imidacloprid, week 8). Also, the percent survival in data set [2] (imidacloprid 0.5 and 5.0 ppm foraging matrix, 23% in untreated arenas) was 17%. For the same molecule, the “Mean ± SE percent survival of termites” value in data set [2] (imidacloprid 0.5 ppm foraging matrix, after 8 weeks) worked out at 17.13 ± 11.61a %; in data set [2] (imidacloprid 5.0 ppm foraging matrix, after 8 weeks), 17.57 ± 9.36a %. In data set [2], the “Time for cessation of termite activity” value stood at 8 weeks.

The values above are taken from patent publication US6928770B2, “Alternating layer non-edible foraging matrix configurations for crawling arthropods” (priority 1999, dated 2005).
